Measurements reported in ChEMBL document CHEMBL3526024, “Oral availability of cefadroxil depends on ABCC3 and ABCC4” (Drug Metab Dispos, 2012).

Columns and labels:
[1] = target: T1, ATP-binding cassette sub-family C member 4 (Homo sapiens, UniProt O15439); assay: Inhibition of recombinant human ABCC4 expressed in baculovirus infected insect Sf21 cell plasma membrane vesicles assessed as inhibition of transporter-mediated [3H]-estradiol-17beta-glucuronide uptake by liquid scintillation counting analysis; type: ADME
T1 sequence (O15439 whole entry): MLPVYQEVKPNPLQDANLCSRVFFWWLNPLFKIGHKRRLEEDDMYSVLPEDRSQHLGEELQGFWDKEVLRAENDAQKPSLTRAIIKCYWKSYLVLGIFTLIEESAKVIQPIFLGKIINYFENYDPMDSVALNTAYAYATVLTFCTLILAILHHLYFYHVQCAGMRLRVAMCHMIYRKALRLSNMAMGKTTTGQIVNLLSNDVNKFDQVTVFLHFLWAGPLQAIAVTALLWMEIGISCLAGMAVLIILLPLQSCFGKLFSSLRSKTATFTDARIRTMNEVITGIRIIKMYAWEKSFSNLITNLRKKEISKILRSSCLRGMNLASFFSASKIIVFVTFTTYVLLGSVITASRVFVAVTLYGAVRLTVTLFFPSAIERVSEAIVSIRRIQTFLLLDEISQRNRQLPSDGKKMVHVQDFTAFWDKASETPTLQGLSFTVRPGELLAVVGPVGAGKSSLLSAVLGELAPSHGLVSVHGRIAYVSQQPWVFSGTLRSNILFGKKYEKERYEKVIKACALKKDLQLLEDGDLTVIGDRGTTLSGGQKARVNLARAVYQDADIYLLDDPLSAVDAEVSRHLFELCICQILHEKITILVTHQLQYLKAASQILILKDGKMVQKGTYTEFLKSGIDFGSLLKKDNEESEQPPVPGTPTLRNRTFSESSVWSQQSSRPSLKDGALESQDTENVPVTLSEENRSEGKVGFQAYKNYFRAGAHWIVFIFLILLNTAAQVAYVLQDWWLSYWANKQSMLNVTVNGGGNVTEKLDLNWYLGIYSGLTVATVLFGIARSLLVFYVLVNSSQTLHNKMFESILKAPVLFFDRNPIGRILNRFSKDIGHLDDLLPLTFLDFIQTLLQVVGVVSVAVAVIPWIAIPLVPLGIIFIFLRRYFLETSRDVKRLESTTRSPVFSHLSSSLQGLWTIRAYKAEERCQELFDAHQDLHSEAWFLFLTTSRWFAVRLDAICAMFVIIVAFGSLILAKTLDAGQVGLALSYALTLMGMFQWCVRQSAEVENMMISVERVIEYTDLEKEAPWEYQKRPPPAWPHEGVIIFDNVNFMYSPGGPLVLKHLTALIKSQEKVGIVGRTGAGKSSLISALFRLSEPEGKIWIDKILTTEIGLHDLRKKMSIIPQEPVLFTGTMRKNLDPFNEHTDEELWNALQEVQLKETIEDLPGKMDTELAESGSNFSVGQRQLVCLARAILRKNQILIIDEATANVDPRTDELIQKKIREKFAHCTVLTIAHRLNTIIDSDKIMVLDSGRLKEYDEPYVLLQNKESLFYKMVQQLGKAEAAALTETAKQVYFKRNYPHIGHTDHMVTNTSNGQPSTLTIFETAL

[2] = target: ATP-binding cassette sub-family C member 2 (Homo sapiens, UniProt Q92887); assay: Inhibition of recombinant human ABCC2 expressed in insect Sf21 cell plasma membrane vesicles assessed as inhibition of transporter-mediated [3H]-estradiol-17beta-glucuronide uptake by liquid scintillation counting analysis; type: ADME, cell membranes
ATP-binding cassette sub-family C member 2, sequence (Q92887 whole entry): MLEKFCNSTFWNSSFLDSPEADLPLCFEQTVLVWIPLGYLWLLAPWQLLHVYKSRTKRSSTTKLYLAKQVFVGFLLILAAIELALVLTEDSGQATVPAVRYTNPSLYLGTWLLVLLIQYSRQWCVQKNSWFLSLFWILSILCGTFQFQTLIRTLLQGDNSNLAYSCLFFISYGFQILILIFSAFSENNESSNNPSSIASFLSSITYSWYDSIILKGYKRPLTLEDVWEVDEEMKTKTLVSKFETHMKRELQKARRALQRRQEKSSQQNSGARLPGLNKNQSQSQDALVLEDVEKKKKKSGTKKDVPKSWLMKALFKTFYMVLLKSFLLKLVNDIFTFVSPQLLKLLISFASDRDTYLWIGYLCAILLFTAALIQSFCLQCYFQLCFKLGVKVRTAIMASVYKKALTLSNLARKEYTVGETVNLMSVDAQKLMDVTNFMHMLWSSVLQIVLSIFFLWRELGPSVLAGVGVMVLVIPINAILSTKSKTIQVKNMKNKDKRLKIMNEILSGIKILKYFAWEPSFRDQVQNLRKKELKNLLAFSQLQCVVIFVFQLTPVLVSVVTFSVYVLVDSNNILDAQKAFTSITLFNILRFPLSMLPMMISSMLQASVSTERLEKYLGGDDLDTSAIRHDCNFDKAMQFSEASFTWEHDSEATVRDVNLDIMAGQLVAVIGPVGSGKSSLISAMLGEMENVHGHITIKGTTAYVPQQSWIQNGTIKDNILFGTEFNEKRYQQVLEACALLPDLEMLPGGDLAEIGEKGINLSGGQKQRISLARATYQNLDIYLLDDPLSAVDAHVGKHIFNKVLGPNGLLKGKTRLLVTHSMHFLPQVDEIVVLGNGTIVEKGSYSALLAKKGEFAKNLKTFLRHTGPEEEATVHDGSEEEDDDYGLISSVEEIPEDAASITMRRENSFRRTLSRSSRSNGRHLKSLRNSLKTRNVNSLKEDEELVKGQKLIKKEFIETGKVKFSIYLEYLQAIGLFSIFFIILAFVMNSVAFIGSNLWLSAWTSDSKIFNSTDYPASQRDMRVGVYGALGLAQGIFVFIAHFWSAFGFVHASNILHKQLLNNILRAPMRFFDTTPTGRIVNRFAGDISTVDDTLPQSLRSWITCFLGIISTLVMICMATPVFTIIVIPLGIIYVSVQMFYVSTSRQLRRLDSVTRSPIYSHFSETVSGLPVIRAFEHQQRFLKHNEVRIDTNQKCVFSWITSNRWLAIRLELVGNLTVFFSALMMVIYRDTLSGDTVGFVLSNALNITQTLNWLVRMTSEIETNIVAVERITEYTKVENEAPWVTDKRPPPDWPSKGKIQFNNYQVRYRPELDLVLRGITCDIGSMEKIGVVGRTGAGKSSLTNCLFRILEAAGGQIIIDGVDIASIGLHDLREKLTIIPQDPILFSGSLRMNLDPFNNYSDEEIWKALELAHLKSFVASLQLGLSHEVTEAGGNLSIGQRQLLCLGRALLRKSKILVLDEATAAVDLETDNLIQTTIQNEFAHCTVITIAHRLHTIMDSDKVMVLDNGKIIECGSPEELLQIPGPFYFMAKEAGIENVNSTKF

[3] = target: T2, ATP-binding cassette sub-family C member 3 (Homo sapiens, UniProt O15438); assay: Inhibition of recombinant human ABCC3 expressed in baculovirus infected insect Sf21 cell plasma membrane vesicles assessed as inhibition of transporter-mediated [3H]-estradiol-17beta-glucuronide uptake by liquid scintillation counting analysis; type: ADME
T2 sequence (O15438 whole entry): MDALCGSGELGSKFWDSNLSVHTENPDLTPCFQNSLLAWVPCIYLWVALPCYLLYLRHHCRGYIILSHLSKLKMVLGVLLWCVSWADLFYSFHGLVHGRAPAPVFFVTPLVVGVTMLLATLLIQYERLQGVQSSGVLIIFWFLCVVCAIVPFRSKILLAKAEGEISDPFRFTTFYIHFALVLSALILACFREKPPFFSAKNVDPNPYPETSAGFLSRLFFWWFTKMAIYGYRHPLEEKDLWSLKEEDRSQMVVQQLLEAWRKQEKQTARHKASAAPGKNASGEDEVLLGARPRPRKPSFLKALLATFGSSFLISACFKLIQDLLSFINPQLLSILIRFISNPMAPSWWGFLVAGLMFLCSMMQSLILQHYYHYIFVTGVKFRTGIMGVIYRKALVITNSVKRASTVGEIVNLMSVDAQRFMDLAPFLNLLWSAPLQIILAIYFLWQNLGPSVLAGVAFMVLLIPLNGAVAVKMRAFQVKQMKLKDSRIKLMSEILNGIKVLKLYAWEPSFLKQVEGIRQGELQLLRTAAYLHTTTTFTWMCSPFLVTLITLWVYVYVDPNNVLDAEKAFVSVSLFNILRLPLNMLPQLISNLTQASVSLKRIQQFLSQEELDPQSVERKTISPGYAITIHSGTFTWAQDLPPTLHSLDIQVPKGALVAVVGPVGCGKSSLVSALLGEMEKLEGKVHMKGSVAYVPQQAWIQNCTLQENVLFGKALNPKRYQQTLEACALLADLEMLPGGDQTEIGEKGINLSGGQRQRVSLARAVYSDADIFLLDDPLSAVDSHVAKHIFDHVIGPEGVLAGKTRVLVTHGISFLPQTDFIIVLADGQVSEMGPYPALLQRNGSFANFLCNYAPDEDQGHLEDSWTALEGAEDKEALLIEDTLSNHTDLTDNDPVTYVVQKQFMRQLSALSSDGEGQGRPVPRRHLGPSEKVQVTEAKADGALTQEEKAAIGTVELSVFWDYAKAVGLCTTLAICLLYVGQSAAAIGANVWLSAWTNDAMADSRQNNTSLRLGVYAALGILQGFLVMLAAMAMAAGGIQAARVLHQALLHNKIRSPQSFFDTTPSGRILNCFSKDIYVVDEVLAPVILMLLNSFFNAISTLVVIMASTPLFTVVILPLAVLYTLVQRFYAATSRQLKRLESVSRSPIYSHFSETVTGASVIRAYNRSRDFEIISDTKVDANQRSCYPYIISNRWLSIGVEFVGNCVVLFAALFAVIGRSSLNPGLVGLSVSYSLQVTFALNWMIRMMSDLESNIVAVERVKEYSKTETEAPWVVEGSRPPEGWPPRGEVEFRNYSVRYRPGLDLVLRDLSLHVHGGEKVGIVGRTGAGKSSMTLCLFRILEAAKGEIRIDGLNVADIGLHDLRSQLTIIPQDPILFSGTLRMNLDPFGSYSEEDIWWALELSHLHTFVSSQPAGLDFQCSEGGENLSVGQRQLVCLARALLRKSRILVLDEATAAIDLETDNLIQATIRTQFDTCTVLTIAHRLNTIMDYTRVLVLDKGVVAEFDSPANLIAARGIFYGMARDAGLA

Kidney [4] = assay: Drug level in Abcc3/Abcc4-deficient mouse kidney at 5 uM by liquid scintillation counting analysis; type: ADME, tissue-based; details: in vivo
Jejunum [5] = assay: Drug transport across ligated jejunum in Abcc3/Abcc4-deficient mouse assessed as drug level in peripheral blood at 5 uM by liquid scintillation counting analysis; type: ADME, tissue-based; details: other
Jejunum [6] = assay: Drug transport across apical to basolateral side in Abcc4-deficient mouse jejunal tissue explants at 50 uM by ussing chamber analysis; type: ADME
[7] = Drug excretion in wild type mouse urine at 5 uM by liquid scintillation counting analysis; type: ADME, tissue-based; details: in vivo
[8] = Drug excretion in Abcc3-deficient mouse urine at 5 uM by liquid scintillation counting analysis; type: ADME, tissue-based; details: in vivo
[9] = Ratio of recombinant human ABCC4-mediated drug uptake in insect Sf21 cell plasma membrane vesicles to recombinant human ABCC3-mediated drug uptake in insect Sf21 cell plasma membrane vesicles; type: ADME, cell membranes
Liver [10] = assay: Drug level in wild type mouse liver at 5 uM by liquid scintillation counting analysis; type: ADME, tissue-based; details: in vivo
Jejunum [11] = assay: Drug transport across ligated jejunum in Abcc3-deficient mouse assessed as drug level in portal blood at 5 uM by liquid scintillation counting analysis; type: ADME, tissue-based
Kidney [12] = assay: Drug level in Abcc3-deficient mouse kidney at 5 uM by liquid scintillation counting analysis; type: ADME, tissue-based; details: in vivo
[13] = Drug excretion in Abcc4-deficient mouse urine at 5 uM by liquid scintillation counting analysis; type: ADME, tissue-based; details: in vivo
Jejunum [14] = assay: Drug transport across ligated jejunum in wild type mouse assessed as drug level in portal blood at 5 uM by liquid scintillation counting analysis; type: ADME, tissue-based; details: TDE = time-dependent effect
Jejunum [15] = assay: Drug transport across ligated jejunum in wild type mouse assessed as drug level in peripheral blood at 5 uM by liquid scintillation counting analysis; type: ADME, tissue-based; details: other
Intestine [16] = assay: Drug level in Abcc4-deficient mouse intestine at 5 uM by liquid scintillation counting analysis; type: ADME, tissue-based; details: in vivo
Liver [17] = assay: Drug level in Abcc4-deficient mouse liver at 5 uM by liquid scintillation counting analysis; type: ADME, tissue-based; details: in vivo
Intestine [18] = assay: Drug level in wild type mouse intestine at 5 uM by liquid scintillation counting analysis; type: ADME, tissue-based; details: in vivo
Intestine [19] = assay: Drug level in Abcc3/Abcc4-deficient mouse intestine at 5 uM by liquid scintillation counting analysis; type: ADME, tissue-based; details: in vivo
Intestine [20] = assay: Drug level in Abcc3-deficient mouse intestine at 5 uM by liquid scintillation counting analysis; type: ADME, tissue-based; details: in vivo
Jejunum [21] = assay: Drug transport across apical to basolateral side in Abcc4-deficient mouse jejunal tissue explants at 5 uM by ussing chamber analysis relative to wild type mouse; type: ADME
[22] = target: T2, ATP-binding cassette sub-family C member 3; assay: Activity of recombinant human ABCC3 expressed in baculovirus infected insect Sf21 cell plasma membrane vesicles assessed as transporter-mediated drug uptake at 10 uM by liquid scintillation counting analysis in presence of ATP; type: ADME; details: sf21, 10 µM, TDE = time-dependent effect
Kidney [23] = assay: Drug level in wild type mouse kidney at 5 uM by liquid scintillation counting analysis; type: ADME, tissue-based; details: in vivo
[24] = Ratio of recombinant human ABCC4-mediated drug uptake in insect Sf21 cell plasma membrane vesicles to recombinant human ABCC2-mediated drug uptake in insect Sf21 cell plasma membrane vesicles; type: ADME, cell membranes
Jejunum [25] = assay: Drug transport across ligated jejunum in Abcc3/Abcc4-deficient mouse assessed as drug level in portal blood at 5 uM by liquid scintillation counting analysis; type: ADME, tissue-based
[26] = Drug uptake in bile of Abcc3/Abcc4-deficient mouse at 5 uM by liquid scintillation counting analysis; type: ADME, tissue-based; details: in vivo
Liver [27] = assay: Drug level in Abcc3-deficient mouse liver at 5 uM by liquid scintillation counting analysis; type: ADME, tissue-based; details: in vivo
[28] = Drug excretion in Abcc3/Abcc4-deficient mouse urine at 5 uM by liquid scintillation counting analysis; type: ADME, tissue-based; details: in vivo
[29] = target: T1, ATP-binding cassette sub-family C member 4; assay: Activity of recombinant human ABCC4 expressed in baculovirus infected insect Sf21 cell plasma membrane vesicles assessed as transporter-mediated drug uptake at 10 uM by liquid scintillation counting analysis in presence of ATP; type: ADME; details: sf21, 10 µM, TDE = time-dependent effect
Jejunum [30] = assay: Drug transport across ligated jejunum in Abcc4-deficient mouse assessed as drug level in portal blood at 5 uM by liquid scintillation counting analysis; type: ADME, tissue-based
[31] = target: Multidrug resistance-associated protein 1 (Homo sapiens, UniProt P33527); assay: Activity of recombinant human ABCC1 expressed in baculovirus infected insect Sf21 cell plasma membrane vesicles assessed as transporter-mediated drug uptake at 10 uM by liquid scintillation counting analysis in presence of ATP; type: ADME; details: sf21, 10 µM, TDE = time-dependent effect
Multidrug resistance-associated protein 1, sequence (P33527 whole entry): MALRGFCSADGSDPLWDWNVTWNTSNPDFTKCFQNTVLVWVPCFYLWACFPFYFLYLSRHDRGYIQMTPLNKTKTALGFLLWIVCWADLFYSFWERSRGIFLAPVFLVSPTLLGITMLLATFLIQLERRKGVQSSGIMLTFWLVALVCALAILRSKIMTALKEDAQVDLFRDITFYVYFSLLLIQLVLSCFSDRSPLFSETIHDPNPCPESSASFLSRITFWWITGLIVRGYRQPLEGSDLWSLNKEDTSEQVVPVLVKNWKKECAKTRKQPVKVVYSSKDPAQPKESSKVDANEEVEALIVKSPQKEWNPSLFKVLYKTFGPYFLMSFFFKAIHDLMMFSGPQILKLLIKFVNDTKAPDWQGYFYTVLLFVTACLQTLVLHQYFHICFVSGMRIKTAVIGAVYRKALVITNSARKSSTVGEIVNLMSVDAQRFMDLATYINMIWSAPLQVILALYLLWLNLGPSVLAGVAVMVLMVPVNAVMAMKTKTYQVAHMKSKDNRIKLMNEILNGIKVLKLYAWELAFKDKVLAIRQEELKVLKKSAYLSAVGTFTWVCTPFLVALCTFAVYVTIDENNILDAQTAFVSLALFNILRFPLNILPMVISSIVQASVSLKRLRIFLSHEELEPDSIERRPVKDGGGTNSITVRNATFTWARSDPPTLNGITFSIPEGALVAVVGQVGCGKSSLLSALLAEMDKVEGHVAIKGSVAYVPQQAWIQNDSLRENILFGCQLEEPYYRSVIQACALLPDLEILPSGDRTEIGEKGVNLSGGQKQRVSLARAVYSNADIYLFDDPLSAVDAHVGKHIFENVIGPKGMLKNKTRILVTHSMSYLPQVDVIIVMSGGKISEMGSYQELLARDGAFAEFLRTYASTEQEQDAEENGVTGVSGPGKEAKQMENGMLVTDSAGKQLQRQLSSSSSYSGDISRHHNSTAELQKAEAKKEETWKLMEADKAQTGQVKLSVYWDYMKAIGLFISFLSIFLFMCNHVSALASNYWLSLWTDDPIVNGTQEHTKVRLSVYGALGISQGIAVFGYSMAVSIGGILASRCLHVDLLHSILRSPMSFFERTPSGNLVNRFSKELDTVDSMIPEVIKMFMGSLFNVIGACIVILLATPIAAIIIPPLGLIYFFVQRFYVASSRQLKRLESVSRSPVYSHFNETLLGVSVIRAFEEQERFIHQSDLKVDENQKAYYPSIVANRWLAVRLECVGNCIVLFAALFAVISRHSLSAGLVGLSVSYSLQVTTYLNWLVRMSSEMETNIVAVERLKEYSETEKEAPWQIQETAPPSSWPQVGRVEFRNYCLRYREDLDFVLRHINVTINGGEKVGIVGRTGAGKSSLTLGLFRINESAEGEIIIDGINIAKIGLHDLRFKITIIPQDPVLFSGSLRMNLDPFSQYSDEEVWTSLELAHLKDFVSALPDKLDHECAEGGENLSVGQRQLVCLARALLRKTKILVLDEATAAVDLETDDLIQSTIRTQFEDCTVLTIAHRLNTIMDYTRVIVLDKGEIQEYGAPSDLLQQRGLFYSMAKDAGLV

Kidney [32] = assay: Drug level in Abcc4-deficient mouse kidney at 5 uM by liquid scintillation counting analysis; type: ADME, tissue-based; details: in vivo
Jejunum [33] = assay: Drug transport across apical to basolateral side in Abcc3/Abcc4-deficient mouse jejunal tissue explants at 50 uM by ussing chamber analysis; type: ADME
Jejunum [34] = assay: Drug transport across apical to basolateral side in Abcc3/Abcc4-deficient mouse jejunal tissue explants at 5 uM by ussing chamber analysis relative to wild type mouse; type: ADME
Liver [35] = assay: Drug level in Abcc3/Abcc4-deficient mouse liver at 5 uM by liquid scintillation counting analysis; type: ADME, tissue-based; details: in vivo

**Q.** Which results are given for `CC1=C(C(=O)O)N2C(=O)[C@@H](NC(=O)[C@H](N)C3=CCC=CC3)[C@H]2SC1` [CEPHRADINE]?
**A.** inhibition (INH) [1]: Active; inhibition (INH) [2]: Active; inhibition (INH) [3]: Active

**Q.** Which “inhibition (INH)” value [1] does the source give for `N[C@@H](C(=O)N[C@@H]1C(=O)N2C(C(=O)O)=C(Cl)CS[C@H]12)c1ccccc1` [CEFACLOR ANHYDROUS] here?
**A.** Active

**Q.** And the “inhibition (INH)” value [2]?
**A.** Active

**Q.** And the “inhibition (INH)” value [3]?
**A.** Active

**Q.** For `CC1=C(C(=O)O)N2C(=O)[C@@H](NC(=O)[C@H](N)c3ccccc3)[C@H]2SC1` [CEPHALEXIN ANHYDROUS], which “inhibition (INH)” value [1] is on record?
**A.** Active

**Q.** What about the “inhibition (INH)” value [2] of the same molecule?
**A.** Active

**Q.** And the “inhibition (INH)” value [3]?
**A.** Active

**Q.** With `Cn1nnnc1SCC1=C(C(=O)O)N2C(=O)[C@@H](NC(=O)[C@H](O)c3ccccc3)[C@H]2SC1` [CEFAMANDOLE] as the molecule, how does the “inhibition (INH)” value [1] read?
**A.** Active

**Q.** What about the “inhibition (INH)” value [2] of the same molecule?
**A.** Active

**Q.** What about the “inhibition (INH)” value [3] of the same molecule?
**A.** Active

**Q.** With `CO/N=C(\C(=O)N[C@@H]1C(=O)N2C(C(=O)O)=C(CSc3nc(=O)c(=O)[nH]n3C)CS[C@H]12)c1csc(N)n1` [CEFTRIAXONE] as the molecule, how does the “inhibition (INH)” value [1] read?
**A.** Active

**Q.** And the “inhibition (INH)” value [2]?
**A.** Active

**Q.** And the “inhibition (INH)” value [3]?
**A.** Active

**Q.** Which “inhibition (INH)” value [1] does the source give for `CO[C@@]1(NC(=O)CSCC#N)C(=O)N2C(C(=O)O)=C(CSc3nnnn3C)CS[C@@H]21` [CEFMETAZOLE] here?
**A.** Active

**Q.** What about the “inhibition (INH)” value [2] of the same molecule?
**A.** Active

**Q.** And the “inhibition (INH)” value [3]?
**A.** Active

**Q.** What does the source list for `CC1=C(C(=O)O)N2C(=O)[C@@H](NC(=O)[C@H](N)c3ccc(O)cc3)[C@H]2SC1` [CEFADROXIL]?
**A.** Drug uptake (Kidney [4]): Active; Drug transport (Jejunum [5]): Not Active; Drug transport (Jejunum [6]): Active; Drug excretion [7]: metabolite_detected; Drug excretion [8]: metabolite_detected; Ratio [9]: 6; Drug uptake (Liver [10]): Active; Drug transport (Jejunum [11]): Active; Drug uptake (Kidney [12]): Active; Drug excretion [13]: metabolite_detected; Drug transport (Jejunum [14]): tde; Drug transport (Jejunum [15]): Active; Drug uptake (Intestine [16]): Active; Drug uptake (Liver [17]): Active; Drug uptake (Intestine [18]): Active; Drug uptake (Intestine [19]): Active; Drug uptake (Intestine [20]): Active; Drug transport (Jejunum [21]): 50%; Activity [22]: tde; Drug uptake (Kidney [23]): Active; Ratio [24]: 3; Drug transport (Jejunum [25]): Not Active; Drug uptake [26]: < 0.4%; Drug uptake (Liver [27]): Active; Drug excretion [28]: metabolite_detected; Activity [29]: tde; Drug transport (Jejunum [30]): Active; Activity [31]: tde; Drug uptake (Kidney [32]): Active; Drug transport (Jejunum [33]): Active; Drug transport (Jejunum [34]): 50%; Drug uptake (Liver [35]): Active

**Q.** What does the source list for `CCN1CCN(C(=O)N[C@@H](C(=O)N[C@@H]2C(=O)N3C(C(=O)O)=C(CSc4nnnn4C)CS[C@H]23)c2ccc(O)cc2)C(=O)C1=O` [CEFOPERAZONE]?
**A.** inhibition (INH) [1]: Active; inhibition (INH) [2]: Active; inhibition (INH) [3]: Active

**Q.** For `CO[C@@]1(NC(=O)Cc2cccs2)C(=O)N2C(C(=O)O)=C(COC(N)=O)CS[C@@H]21` [CEFOXITIN], which “inhibition (INH)” value [1] is on record?
**A.** Active

**Q.** And the “inhibition (INH)” value [2]?
**A.** Active

**Q.** What about the “inhibition (INH)” value [3] of the same molecule?
**A.** Active

**Q.** With `CO/N=C(\C(=O)N[C@@H]1C(=O)N2C(C(=O)O)=C(COC(N)=O)CS[C@H]12)c1ccco1` [CEFUROXIME] as the molecule, how does the “inhibition (INH)” value [1] read?
**A.** Active

**Q.** What about the “inhibition (INH)” value [2] of the same molecule?
**A.** Active

**Q.** And the “inhibition (INH)” value [3]?
**A.** Active
